Assay [1] addresses T1, Tau K18 fragment (amino acids 244 to 372 of human Tau441) aggregates (Homo sapiens, UniProt P10636).
T1 construct: encompassing amino acids 244 to 372 of the longest isoform (2N4R) of human Tau441; host or cells: bacteria
In words: Tau K18 disaggregation assay by ThT. It is filed as biochemical. As to conditions: 2 μM K18 aggregates, 30 minutes at RT, ThT fluorescence.

Assay [2] deals with rTg4510 mice. Briefly: Histology for misfolded Tau (MC1) in rTg4510 mice. It is filed as in vivo, mouse. The following applies: 30 mg/kg bi-daily by gavage for 1 month, frontal cortex (FIG. 2). An excerpt: (§1) In Vivo Efficacy of the Compounds of the Present Invention In Vivo Study Design for the Testing of Example 12 and Example 45
(§2) Double transgenic rTg4510 mice express the full-length human Tau carrying the P301L mutation (Tau4R0N-P301L) under the control of the tet-inducible CaMKII promoter (Ramsden et al., J. Neurosci., 2005⋅25(46):10637-10647). Single transgenic mice expressing only the tetracycline-controlled transactivator (tTA) were used as genotype controls. The study comprised 4 treatment groups (n=15 female for tTa group and n=11 female mice/group for the treatment) with the following group distribution (see Table 9). […]
After perfusion, brains were then removed and hemi-sagitally hemisected. […] A systematic random set of sections from seven sagittal levels per animal was used to quantify the Iba1 and CD68 immunoreactivity while 1 section/animal from the medio-lateral level 4 were used to assess Tau misfolding (MC1 monoclonal antibody). […] Sections were imaged using a digital slide scanner (Panoramic 250 Flash, 3D Histech Ltd.) and quantified using the image visualization software Visiopharm.
MC1 staining was analyzed in the frontal cortex in the upper cortical layers. […] This ROI was analyzed in Visiopharm using a predetermined threshold for MC1 staining with a pixel intensity threshold above 30 (8 bits pictures) and excluding all detected objects smaller than 20 μm^2. […]

The subject of assay [3] is rTg4510 mice. Briefly: Total human Tau in CSF of rTg4510 mice (AlphaLISA). Type of assay: in vivo, mouse. As to conditions: 30 mg/kg bi-daily by gavage for 1 month, vs vehicle treated rTg4510 mice (FIG. 1).
Text: as §1, §2
Mice were deeply anesthetized by standard injectable anesthesia and transcardially perfused with cold PBS. […] Total human Tau in CSF Tau was quantified using the following antibody pairs: HT7-Acceptor beads+biotin (BT)-Tau13-donor beads. […]
After incubation of this mixture at room temperature for 1 hour, 25 μL of Streptavidin Donor beads (Perkin Elmer) at 25 μg/mL were added in the dark. Plates were analyzed after 30 minute incubation using the EnSpire Alpha instrument and EnSpire Workstation version 3.00. Data were analyzed by 1-way ANOVA followed by post-hoc comparisons and shown statistics refers to differences compared to vehicle treated rTg4510 mice.

T1 sequence (P10636 561-689): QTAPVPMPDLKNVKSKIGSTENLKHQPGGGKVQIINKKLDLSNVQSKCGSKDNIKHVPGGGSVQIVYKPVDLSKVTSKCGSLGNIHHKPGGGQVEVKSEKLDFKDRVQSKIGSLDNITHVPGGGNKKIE

For `Fc1ccc2[nH]c3c(c2c1)CN(c1ccc2nc(N4CCOCC4)oc2c1)CC3` [Example 12], the EC50 in assay [1] is < 10 µM. Also, the “MC1 positive area (misfolded Tau)” value with rTg4510 mice [2] is reported as “decreased the MC1 positive area”. In the assay with rTg4510 mice [3], the “Tau levels in CSF” value is “decreased Tau levels in CSF”.

(Values after patent US10633383B2, “Compounds for the treatment, alleviation or prevention of disorders associated with Tau aggregates” (AC Immune SA, priority 2018, dated 2020).)
